From PubChem BioAssay AID2060627 (Molecular Pharmacology Branch, DTP, NCI, 2025)

System: 156681-154-R-J1-PDC complex spheroid viability
Assay: Anticancer human tumor 156681-154-R-J1-PDC patient-derived melanoma cell line growth inhibition [CLK]
Conditions: for IC50: curve of first compound; for viability, T/C: stronger effect = lower value
Description: A high-throughput screen of multi-cell type tumor spheroids was designed to identify active combinations of […] and targeted small molecules. Complex spheroids include a stromal component modeled by human endothelial cells (HUVEC) and fibroblasts modeled by human mesenchymal stem cells (MSCs). The concentration ranges selected for each drug and investigational agent were based upon clinically achievable concentrations if the clinical Cmax of the agent was known.
Compounds. The drugs and investigational agents: cirtuvivint (SM08502; NSC835563), CC-671 (NSC850746), vemurafenib (NSC761431), tapotoclax (NSC804041), sotorasib (NSC818433), adagrasib (NSC831453), MRTX-1133 (NSC836407), BAY2416964 (NSC825713), copanlisib (NSC816437), inavolisib (NSC800729), abemaciclib (NSC768073), osimertinib (NSC779217), entinostat (NSC756642), eltanexor (KPT-8602, NSC794443), venetoclax (NSC766270), ceralasertib (NSC777638), bortezomib (NSC756655), olaparib (NSC753686), talazoparib (NSC767125), alisertib (NSC759677), peposertib (NSC802822), gemcitabine (NSC613327), 5-fluorouracil (NSC19893), SN-38 (NSC673596), oxaliplatin (NSC266046), paclitaxel (NSC125973), and doxorubicin (NSC123127), were obtained from the National Cancer Institute (NCI) Developmental Therapeutics Program Chemical Repository. The FDA-approved anticancer drug set is available from the Developmental Therapeutics Program at https://dtp.cancer.gov/organization/dscb/obtaining/available plates.htm. […] The stock solutions were prepared in dimethyl sulfoxide (DMSO, Sigma-Aldrich, St. Louis, MO, cat. D2650), except for the platinum complexes which were prepared in saline (Quality Biological, Gaithersburg, MD, cat. 114-055-101), at 800-fold the tested concentration and stored at -70 degrees C prior to their use. All drugs and investigational agents were tested over a range starting from a high concentration at or near the clinical Cmax and decreasing in half-log increments. If the clinical Cmax for an agent had not been determined, the highest concentration tested was 10 microM.
Cell Culture. All cells were maintained in an incubator at 37 degrees C and 5% CO2 with 95% humidity. The PDC lines were cultured according to standard operating procedures established by the NCI PDMR. Briefly, all PDCs were thawed and cultured in Matrigel-coated flasks prepared with a working solution of 1X Ham's F-12 nutrient mix, without supplementation (Invitrogen, Waltham, MA, cat. 11765054), 100 U/mL penicillin-streptomycin (Invitrogen, cat. 15140122), and 2.5% Matrigel (Corning Inc., Corning, NY, cat. 354248) for the first three passages. The 947758-054-R-J2-PDC line was cultured in 6B/Colon 1A media, which includes advanced DMEM/F-12 (Thermo Fisher Scientific, cat. 12634028), 10 mM HEPES (Thermo Fisher Scientific, cat. 15630080), 1X GlutaMAX supplement (Thermo Fisher Scientific, cat. 35050061), 0.1 mg/mL primocin (InvivoGen, cat. ant-pm-2), 10% defined fetal bovine serum, heat inactivated (HyClone Laboratories Inc., cat. SH30070.03HI), 1.25 mM N-Acetyl-L-cysteine (Sigma-Aldrich, cat. A9165), 10 mM nicotinamide (Sigma-Aldrich, cat. N0636), 1X B-27 supplement (Thermo Fisher Scientific, cat. 17504044), 1X N-2 supplement (Thermo Fisher Scientific, cat. 17502048), and 10 microM Y-27632 dihydrochloride (Tocris Bioscience, cat. 1254). The 876862-298-R-J1-PDC was cultured in 6E media, which includes all 6B/Colon 1A media components plus 50% L-WRN conditioned media (ATCC, cat. CRL-3276), 50 ng/mL recombinant human EGF recombinant protein (hEGF; Thermo Fisher Scientific, cat. PHG0311), 10 ng/mL recombinant human fibroblast growth factor 10 (hGFG-10; PeproTech, cat. 100-26), 1 ng/mL recombinant human fibroblast growth factor 2 (hFGF-2; PeproTech, cat. 100-18B), and 1 µM prostaglandin E2 (PGE2; Tocris, cat. 2296). The 227483-062-R1-J1-PDC line was cultured in Panc media, containing all 6E components except hFGF-2, with the addition of 500 nM SB-431542 (Selleckchem, cat. S1067) and 10 nM gastrin (Tocris, cat. 3006). […]

[1] = second compound 0.0316 µM, first compound 0.0316 µM
[2] = second compound 0.0316 µM, first compound 0.1 µM
[3] = second compound 0.0316 µM, first compound 0.316 µM
[4] = second compound 0.0316 µM, first compound 1 µM
[5] = second compound 0.0316 µM, first compound 3.16 µM
[6] = second compound 0.0316 µM, first compound 10 µM
[7] = second compound 0.1 µM, first compound 0.0316 µM
[8] = second compound 0.1 µM, first compound 0.1 µM
[9] = second compound 0.1 µM, first compound 0.316 µM
[10] = second compound 0.1 µM, first compound 1 µM
[11] = second compound 0.1 µM, first compound 3.16 µM
[12] = second compound 0.1 µM, first compound 10 µM
[13] = second compound 0.316 µM, first compound 0.0316 µM
[14] = second compound 0.316 µM, first compound 0.1 µM
[15] = second compound 0.316 µM, first compound 0.316 µM
[16] = second compound 0.316 µM, first compound 1 µM
[17] = second compound 0.316 µM, first compound 3.16 µM
[18] = second compound 0.316 µM, first compound 10 µM
[19] = second compound 1 µM, first compound 0.0316 µM
[20] = second compound 1 µM, first compound 0.1 µM
[21] = second compound 1 µM, first compound 0.316 µM
[22] = second compound 1 µM, first compound 1 µM
[23] = second compound 1 µM, first compound 3.16 µM
[24] = second compound 1 µM, first compound 10 µM
[25] = second compound 3.16 µM, first compound 0.0316 µM
[26] = second compound 3.16 µM, first compound 0.1 µM
[27] = second compound 3.16 µM, first compound 0.316 µM
[28] = second compound 3.16 µM, first compound 1 µM
[29] = second compound 3.16 µM, first compound 3.16 µM
[30] = second compound 3.16 µM, first compound 10 µM
[31] = second compound 10 µM, first compound 0.0316 µM
[32] = second compound 10 µM, first compound 0.1 µM
[33] = second compound 10 µM, first compound 0.316 µM
[34] = second compound 10 µM, first compound 1 µM
[35] = second compound 10 µM, first compound 3.16 µM
[36] = second compound 10 µM, first compound 10 µM
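Also: spheroids exposed to the agents for seven days.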
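For viability, T/C in this document: 100% = DMSO vehicle control viability.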

C=CC(=O)N1CCN(c2nc(=O)n(-c3c(C)ccnc3C(C)C)c3nc(-c4c(O)cccc4F)c(F)cc23)C(C)C1 (centres undefined) + CN1CCN(c2cc(C(=O)Nc3cc4cc(-c5cnn(C)c5)ccc4cn3)ccn2)CC1 was tested, and the IC50 (second compound 0.0316 µM) was over 10000 nM, the IC50 (second compound 0.1 µM) was over 10000 nM and the IC50 (second compound 0.316 µM) was under 31.6 nM. It also gave an IC50 (second compound 1 µM) of under 31.6 nM, an IC50 (second compound 3.16 µM) of under 31.6 nM and an IC50 (second compound 10 µM) of under 31.6 nM. It also gave a viability, T/C [1] of 97.3%, a viability, T/C [2] of 88% and a viability, T/C [3] of 112%. It also gave a viability, T/C [4] of 129%, a viability, T/C [5] of 118% and a viability, T/C [6] of 97.9%. For the same compound, the viability, T/C [7] was 95.6%, the viability, T/C [8] was 78.6% and the viability, T/C [9] was 101%. For the same compound, the viability, T/C [10] was 99.9%, the viability, T/C [11] was 119% and the viability, T/C [12] was 100%. For the same compound, the viability, T/C [13] was 28.5%, the viability, T/C [14] was 27.9% and the viability, T/C [15] was 23.8%. For the same compound, the viability, T/C [16] was 30%, the viability, T/C [17] was 29.6% and the viability, T/C [18] was 10.9%. It also gave a viability, T/C [19] of 0.18%, a viability, T/C [20] of 3.34% and a viability, T/C [21] of 0.25%. It also gave a viability, T/C [22] of 0.17%, a viability, T/C [23] of 2% and a viability, T/C [24] of 0.82%. The viability, T/C [25] was 0.77%, the viability, T/C [26] was 0.21% and the viability, T/C [27] was 0.12%. For the same compound, the viability, T/C [28] was 0.11%, the viability, T/C [29] was 2.22% and the viability, T/C [30] was 3.15%. It also gave a viability, T/C [31] of 0.12%, a viability, T/C [32] of 0.14% and a viability, T/C [33] of 0.25%. For the same compound, the viability, T/C [34] was 0.17%, the viability, T/C [35] was 1.47% and the viability, T/C [36] was 0.3%.
With COC1C=CCC(C)C(C)S(=O)(=O)NC(=O)c2ccc3c(c2)N(CC2CCC21)CC1(CCCc2cc(Cl)ccc21)CO3 (centres undefined) + CN1CCN(c2cc(C(=O)Nc3cc4cc(-c5cnn(C)c5)ccc4cn3)ccn2)CC1 the IC50 (second compound 0.0316 µM) was 1600 nM, the IC50 (second compound 0.1 µM) was 1170 nM and the IC50 (second compound 0.316 µM) was under 31.6 nM. The IC50 (second compound 1 µM) was under 31.6 nM, the IC50 (second compound 3.16 µM) was under 31.6 nM and the IC50 (second compound 10 µM) was under 31.6 nM. It also gave a viability, T/C [1] of 111%, a viability, T/C [2] of 83.4% and a viability, T/C [3] of 86.8%. It also gave a viability, T/C [4] of 75.4%, a viability, T/C [5] of 13.8% and a viability, T/C [6] of 1.82%. It also gave a viability, T/C [7] of 90.1%, a viability, T/C [8] of 97.8% and a viability, T/C [9] of 81.2%. It also gave a viability, T/C [10] of 58%, a viability, T/C [11] of 11.7% and a viability, T/C [12] of 2.71%. For the same compound, the viability, T/C [13] was 27.3%, the viability, T/C [14] was 17.2% and the viability, T/C [15] was 16.7%. The viability, T/C [16] was 10.2%, the viability, T/C [17] was 4.46% and the viability, T/C [18] was 1.8%. The viability, T/C [19] was 0.2%, the viability, T/C [20] was 0.34% and the viability, T/C [21] was 0.18%. It also gave a viability, T/C [22] of 0.14%, a viability, T/C [23] of 0.12% and a viability, T/C [24] of 2.25%. The viability, T/C [25] was 0.14%, the viability, T/C [26] was 2.92% and the viability, T/C [27] was 1.77%. For the same compound, the viability, T/C [28] was 0.13%, the viability, T/C [29] was 2.33% and the viability, T/C [30] was 1.15%. It also gave a viability, T/C [31] of 0.16%, a viability, T/C [32] of 0.14% and a viability, T/C [33] of 0.26%. The viability, T/C [34] was 0.22%, the viability, T/C [35] was 0.29% and the viability, T/C [36] was 0.25%.
